Data: US10913744B2, “LRRK2 inhibitors and methods of making and using the same” (Dana-Farber Cancer Institute, Inc., priority 2015, dated 2021)
Where two headings read alike, the source gives them in different places.

Legend:
[1] = molecular target: SNARK (Homo sapiens (Human), UniProt Q9H093); test: KinomeScan; assay type: binding; settings: 1 uM
[2] = molecular target: CHK1 (Homo sapiens (Human), UniProt O14757); test: Dundee profiling
[3] = molecular target: MST3 (Homo sapiens (Human), UniProt Q9Y6E0); test: Dundee profiling
[4] = molecular target: CSK (Homo sapiens (Human), UniProt P41240); test: KinomeScan; assay type: binding; settings: 1 uM
[5] = molecular target: IR (Homo sapiens (Human), UniProt P06213); test: Dundee profiling
[6] = molecular target: p38g MAPK (Homo sapiens (Human), UniProt P53778); test: Dundee profiling
[7] = molecular target: STK33 (Homo sapiens (Human), UniProt Q9BYT3); test: Dundee profiling
[8] = system: PHK; test: Dundee profiling
[9] = molecular target: MAPKAP-K2 (Homo sapiens (Human), UniProt P49137); test: Dundee profiling
[10] = molecular target: MELK (Homo sapiens (Human), UniProt Q14680); test: Dundee profiling
[11] = molecular target: ZAP70 (Homo sapiens (Human), UniProt P43403); test: Dundee profiling
[12] = molecular target: FGF-R1 (Homo sapiens (Human), UniProt P11362); test: Dundee profiling
[13] = molecular target: CDK2-Cyclin A (Homo sapiens (Human), UniProt P24941); test: Dundee profiling
[14] = molecular target: SYK (Homo sapiens (Human), UniProt P43405); test: KinomeScan; assay type: binding; settings: 1 uM
[15] = molecular target: EPH-B3 (Homo sapiens (Human), UniProt P54753); test: Dundee profiling
[16] = molecular target: PKBa (Homo sapiens (Human), UniProt P31749); test: Dundee profiling
[17] = molecular target: MET (Y1235D) (Homo sapiens (Human), UniProt P08581, Y1235D); test: KinomeScan; assay type: binding; settings: 1 uM
[18] = molecular target: SGK1 (Homo sapiens (Human), UniProt O00141); test: Dundee profiling
[19] = molecular target: p38d MAPK (Homo sapiens (Human), UniProt O15264); test: Dundee profiling
[20] = molecular target: PRKR (Homo sapiens (Human), UniProt P19525); test: KinomeScan; assay type: binding; settings: 1 uM
[21] = molecular target: IRAK4 (Homo sapiens (Human), UniProt Q9NWZ3); test: KinomeScan; assay type: binding; settings: 1 uM
[22] = molecular target: MNK1 (Homo sapiens (Human), UniProt Q9BUB5); test: Dundee profiling
[23] = molecular target: EF2K (Homo sapiens (Human), UniProt O00418); test: Dundee profiling
[24] = molecular target: MET (M1250T) (Homo sapiens (Human), UniProt P08581, M1250T); test: KinomeScan; assay type: binding; settings: 1 uM
[25] = molecular target: TTBK1 (Homo sapiens (Human), UniProt Q5TCY1); test: Dundee profiling
[26] = molecular target: PLK1 (Homo sapiens (Human), UniProt P53350); test: Dundee profiling
[27] = molecular target: BMPR2 (Homo sapiens (Human), UniProt Q13873); test: KinomeScan; assay type: binding; settings: 1 uM
[28] = molecular target: MARK3 (Homo sapiens (Human), UniProt P27448); test: Dundee profiling
[29] = molecular target: EGFR (L747-E749del, A750P) (Homo sapiens (Human), UniProt P00533, A750P/DEL747-749); test: KinomeScan; assay type: binding; settings: 1 uM
[30] = molecular target: TYK2 (JH1domain-catalytic) (Homo sapiens (Human), UniProt P29597); test: KinomeScan; assay type: binding; settings: 1 uM
[31] = molecular target: DYRK1A (Homo sapiens (Human), UniProt Q13627); test: Dundee profiling
[32] = molecular target: LKB1 (Homo sapiens (Human), UniProt Q15831); test: Dundee profiling
[33] = molecular target: Aurora A (Homo sapiens (Human), UniProt O14965); test: Dundee profiling
[34] = molecular target: CIT (Homo sapiens (Human), UniProt O14578); test: KinomeScan; assay type: binding; settings: 1 uM
[35] = read-out: percent remaining enzymatic activity
[36] = read-out: percent remaining enzymatic activity, I1, 1 μM
[37] = read-out: percent remaining enzymatic activity, I10

Chain of Aurora A (O14965 whole entry): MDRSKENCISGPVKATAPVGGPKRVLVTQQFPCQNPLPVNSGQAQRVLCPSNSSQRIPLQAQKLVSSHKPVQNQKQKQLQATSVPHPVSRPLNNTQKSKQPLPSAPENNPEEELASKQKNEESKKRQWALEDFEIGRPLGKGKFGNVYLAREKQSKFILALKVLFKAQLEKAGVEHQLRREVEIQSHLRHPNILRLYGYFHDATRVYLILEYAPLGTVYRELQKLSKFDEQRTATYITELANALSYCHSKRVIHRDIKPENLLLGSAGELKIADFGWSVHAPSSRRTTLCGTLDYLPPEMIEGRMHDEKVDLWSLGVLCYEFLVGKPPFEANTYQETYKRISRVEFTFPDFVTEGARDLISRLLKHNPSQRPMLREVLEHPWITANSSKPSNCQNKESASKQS
Chain of EPH-B3 (P54753 34-998, species assumed): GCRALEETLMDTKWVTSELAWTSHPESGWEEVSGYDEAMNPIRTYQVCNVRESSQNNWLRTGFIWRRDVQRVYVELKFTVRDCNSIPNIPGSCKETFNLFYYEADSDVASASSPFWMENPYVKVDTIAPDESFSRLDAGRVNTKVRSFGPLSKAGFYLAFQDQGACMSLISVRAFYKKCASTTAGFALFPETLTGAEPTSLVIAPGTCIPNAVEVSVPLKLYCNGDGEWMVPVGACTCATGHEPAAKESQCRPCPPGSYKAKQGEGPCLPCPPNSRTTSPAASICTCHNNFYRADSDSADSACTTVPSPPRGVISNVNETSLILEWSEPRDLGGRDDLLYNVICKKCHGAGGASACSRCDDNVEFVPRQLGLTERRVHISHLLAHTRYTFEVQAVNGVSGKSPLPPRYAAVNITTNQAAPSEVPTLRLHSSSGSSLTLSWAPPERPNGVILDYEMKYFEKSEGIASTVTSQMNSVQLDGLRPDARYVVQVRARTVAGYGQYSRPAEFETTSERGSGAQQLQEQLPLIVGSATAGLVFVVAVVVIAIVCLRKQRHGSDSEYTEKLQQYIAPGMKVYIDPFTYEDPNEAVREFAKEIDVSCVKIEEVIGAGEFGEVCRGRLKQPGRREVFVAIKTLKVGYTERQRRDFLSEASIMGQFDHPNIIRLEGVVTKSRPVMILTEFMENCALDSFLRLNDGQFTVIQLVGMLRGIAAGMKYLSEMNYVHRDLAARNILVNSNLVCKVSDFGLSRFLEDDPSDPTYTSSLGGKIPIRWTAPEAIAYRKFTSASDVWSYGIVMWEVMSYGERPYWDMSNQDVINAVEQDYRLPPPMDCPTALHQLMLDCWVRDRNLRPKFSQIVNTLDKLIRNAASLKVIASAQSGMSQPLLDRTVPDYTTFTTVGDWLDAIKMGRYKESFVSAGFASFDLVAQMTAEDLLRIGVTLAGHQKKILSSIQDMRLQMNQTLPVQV
Chain of STK33 (Q9BYT3 whole entry, species assumed): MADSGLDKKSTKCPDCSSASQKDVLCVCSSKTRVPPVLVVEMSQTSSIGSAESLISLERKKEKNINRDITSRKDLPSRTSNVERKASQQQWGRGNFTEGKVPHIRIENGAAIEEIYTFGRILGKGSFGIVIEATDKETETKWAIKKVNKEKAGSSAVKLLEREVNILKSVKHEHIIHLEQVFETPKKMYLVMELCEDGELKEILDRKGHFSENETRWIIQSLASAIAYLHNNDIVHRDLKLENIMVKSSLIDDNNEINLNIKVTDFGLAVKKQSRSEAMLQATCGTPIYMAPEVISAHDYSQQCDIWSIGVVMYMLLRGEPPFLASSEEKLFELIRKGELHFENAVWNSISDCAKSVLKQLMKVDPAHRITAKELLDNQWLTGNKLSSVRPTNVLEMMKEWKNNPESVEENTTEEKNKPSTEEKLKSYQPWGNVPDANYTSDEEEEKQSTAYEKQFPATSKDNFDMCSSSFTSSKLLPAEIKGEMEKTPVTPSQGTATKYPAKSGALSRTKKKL
Chain of MNK1 (Q9BUB5 whole entry, species assumed): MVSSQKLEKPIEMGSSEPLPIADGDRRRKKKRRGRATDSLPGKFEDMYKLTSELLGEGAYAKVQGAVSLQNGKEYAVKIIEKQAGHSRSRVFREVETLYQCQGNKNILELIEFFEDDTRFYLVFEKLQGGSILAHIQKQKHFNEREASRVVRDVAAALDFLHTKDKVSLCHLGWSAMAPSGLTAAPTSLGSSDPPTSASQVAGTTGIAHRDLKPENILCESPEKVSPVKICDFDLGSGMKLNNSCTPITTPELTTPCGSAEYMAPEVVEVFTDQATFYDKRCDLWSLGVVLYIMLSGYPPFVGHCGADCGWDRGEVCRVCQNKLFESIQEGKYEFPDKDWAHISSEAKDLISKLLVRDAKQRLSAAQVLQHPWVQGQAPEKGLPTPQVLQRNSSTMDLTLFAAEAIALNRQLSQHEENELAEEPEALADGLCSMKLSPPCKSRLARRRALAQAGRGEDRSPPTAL
Chain of PLK1 (P53350 whole entry, looked up, species assumed): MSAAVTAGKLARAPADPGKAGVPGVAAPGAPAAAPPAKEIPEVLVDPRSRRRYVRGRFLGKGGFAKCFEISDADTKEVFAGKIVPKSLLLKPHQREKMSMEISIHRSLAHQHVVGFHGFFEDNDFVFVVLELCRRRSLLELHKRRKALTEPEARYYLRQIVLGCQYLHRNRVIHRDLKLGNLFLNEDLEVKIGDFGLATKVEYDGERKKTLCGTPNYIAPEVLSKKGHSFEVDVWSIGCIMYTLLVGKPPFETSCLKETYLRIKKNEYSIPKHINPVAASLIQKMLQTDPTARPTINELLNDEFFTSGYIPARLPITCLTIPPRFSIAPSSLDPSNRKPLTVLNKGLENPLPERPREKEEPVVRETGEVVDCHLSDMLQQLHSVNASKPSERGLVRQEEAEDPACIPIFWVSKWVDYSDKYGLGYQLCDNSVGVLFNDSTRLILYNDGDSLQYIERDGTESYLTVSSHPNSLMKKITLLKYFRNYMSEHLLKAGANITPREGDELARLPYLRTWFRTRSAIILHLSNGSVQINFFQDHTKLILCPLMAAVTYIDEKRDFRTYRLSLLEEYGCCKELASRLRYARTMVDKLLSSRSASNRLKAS
Chain of ZAP70 (P43403 whole entry, species assumed): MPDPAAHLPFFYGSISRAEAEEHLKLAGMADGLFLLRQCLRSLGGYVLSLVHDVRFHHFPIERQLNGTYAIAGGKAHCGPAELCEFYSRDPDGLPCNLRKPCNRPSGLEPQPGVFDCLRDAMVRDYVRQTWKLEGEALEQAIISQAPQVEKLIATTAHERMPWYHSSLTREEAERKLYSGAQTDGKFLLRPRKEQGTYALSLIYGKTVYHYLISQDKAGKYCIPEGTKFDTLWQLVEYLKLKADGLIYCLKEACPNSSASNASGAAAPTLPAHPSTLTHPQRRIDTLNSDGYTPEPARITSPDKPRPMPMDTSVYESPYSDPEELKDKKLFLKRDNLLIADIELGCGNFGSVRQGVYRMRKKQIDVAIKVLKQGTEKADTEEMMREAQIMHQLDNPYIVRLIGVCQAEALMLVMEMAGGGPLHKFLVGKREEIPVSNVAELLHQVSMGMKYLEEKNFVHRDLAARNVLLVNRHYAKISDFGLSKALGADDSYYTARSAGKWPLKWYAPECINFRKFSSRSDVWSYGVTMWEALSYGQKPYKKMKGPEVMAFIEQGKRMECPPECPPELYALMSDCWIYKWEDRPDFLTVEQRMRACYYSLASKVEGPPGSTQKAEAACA
Chain of LKB1 (Q15831 whole entry, species assumed): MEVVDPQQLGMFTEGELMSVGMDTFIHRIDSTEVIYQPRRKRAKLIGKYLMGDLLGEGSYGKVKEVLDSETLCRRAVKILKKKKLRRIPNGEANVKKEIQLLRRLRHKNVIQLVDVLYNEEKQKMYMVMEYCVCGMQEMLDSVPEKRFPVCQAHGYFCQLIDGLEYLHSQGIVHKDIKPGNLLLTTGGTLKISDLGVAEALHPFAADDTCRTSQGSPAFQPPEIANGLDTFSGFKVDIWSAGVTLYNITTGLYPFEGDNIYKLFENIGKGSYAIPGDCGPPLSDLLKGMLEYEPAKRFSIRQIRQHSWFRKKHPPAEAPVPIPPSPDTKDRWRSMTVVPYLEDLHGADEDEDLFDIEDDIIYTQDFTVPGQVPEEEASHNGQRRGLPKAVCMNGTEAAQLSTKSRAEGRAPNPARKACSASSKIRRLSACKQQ
Chain of LKB1 (Q7RTN6 whole entry partner, species assumed): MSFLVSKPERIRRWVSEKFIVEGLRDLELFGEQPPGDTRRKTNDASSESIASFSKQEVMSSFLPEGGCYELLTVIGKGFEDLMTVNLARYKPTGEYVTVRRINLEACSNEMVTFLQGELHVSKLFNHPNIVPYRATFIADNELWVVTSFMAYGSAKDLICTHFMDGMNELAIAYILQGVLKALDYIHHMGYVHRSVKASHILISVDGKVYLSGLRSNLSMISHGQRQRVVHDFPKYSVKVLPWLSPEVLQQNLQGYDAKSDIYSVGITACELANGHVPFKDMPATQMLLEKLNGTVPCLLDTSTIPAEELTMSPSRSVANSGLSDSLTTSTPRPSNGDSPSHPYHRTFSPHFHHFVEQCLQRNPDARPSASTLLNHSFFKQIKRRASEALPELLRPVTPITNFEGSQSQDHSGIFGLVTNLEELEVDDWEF
Chain of LKB1 (Q9Y376 whole entry partner, species assumed): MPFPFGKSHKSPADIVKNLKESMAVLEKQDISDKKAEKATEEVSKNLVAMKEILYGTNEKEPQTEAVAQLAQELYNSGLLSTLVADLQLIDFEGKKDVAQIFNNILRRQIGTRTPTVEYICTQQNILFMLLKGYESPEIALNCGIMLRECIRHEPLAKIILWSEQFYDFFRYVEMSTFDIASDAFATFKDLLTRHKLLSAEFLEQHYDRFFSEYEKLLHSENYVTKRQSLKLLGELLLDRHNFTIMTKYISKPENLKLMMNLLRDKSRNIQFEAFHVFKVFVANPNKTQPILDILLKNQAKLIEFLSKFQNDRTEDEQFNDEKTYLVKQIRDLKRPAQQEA

## CNc1nc(Nc2ccc(C(=O)N3CCOCC3)cc2OC)nc2[nH]cc(Cl)c12 [Compound 18, (4-((5-chloro-4-(methylamino)-7H-pyrrolo[2,3-d]pyrimidin-2-yl)amino)-3-methoxyphenyl)(morpholino)methanone]
[1]
  KinomeScan value: 100
[2]; I10
  percent remaining enzymatic activity: 93%
[2]; [35]
  remaining activity at 1 µM: 110%
[3]; I10
  percent remaining enzymatic activity: 95%
[3]; [35]
  remaining activity at 1 µM: 102%
[4]
  KinomeScan value: 100
[5]; [36]
  remaining activity at 1 µM: 21%
[5]; [37]
  remaining activity at 1 µM: 10%
[6]; [36]
  remaining activity at 1 µM: 116%
[6]; [37]
  remaining activity at 1 µM: 96%
[7]; [36]
  remaining activity at 1 µM: 22%
[7]; [37]
  remaining activity at 1 µM: 15%
[8]; I1, 1 μM
  percent remaining enzymatic activity: 13%
[8]; I10
  percent remaining enzymatic activity: 1%
[9]; [36]
  remaining activity at 1 µM: 86%
[9]; [37]
  remaining activity at 1 µM: 40%
[10]; [36]
  remaining activity at 1 µM: 118%
[10]; [37]
  remaining activity at 1 µM: 79%
[11]; [36]
  remaining activity at 1 µM: 101%
[11]; [37]
  remaining activity at 1 µM: 85%
[12]; [36]
  remaining activity at 1 µM: 94%
[12]; [37]
  remaining activity at 1 µM: 102%
[13]; I10
  percent remaining enzymatic activity: 67%
[13]; [35]
  remaining activity at 1 µM: 102%
[14]
  KinomeScan value: 80
[15]; I1, 1 μM
  percent remaining enzymatic activity: 92%
[15]; [35]
  remaining activity at 1 µM: 92%
[16]; [36]
  remaining activity at 1 µM: 101%
[16]; [37]
  remaining activity at 1 µM: 105%
[17]
  KinomeScan value: 100
[18]; [36]
  remaining activity at 1 µM: 86%
[18]; [37]
  remaining activity at 1 µM: 76%
[19]; [36]
  remaining activity at 1 µM: 107%
[19]; [37]
  remaining activity at 1 µM: 102%
[20]
  KinomeScan value: 96
[21]
  KinomeScan value: 100
[22]; [36]
  remaining activity at 1 µM: 102%
[22]; [37]
  remaining activity at 1 µM: 78%
[23]; [36]
  remaining activity at 1 µM: 105%
[23]; [37]
  remaining activity at 1 µM: 102%
[24]
  KinomeScan value: 80
[25]; [36]
  remaining activity at 1 µM: 103%
[25]; [37]
  remaining activity at 1 µM: 98%
[26]; [36]
  remaining activity at 1 µM: 62%
[26]; [37]
  remaining activity at 1 µM: 13%
[27]
  KinomeScan value: 100
[28]; [36]
  remaining activity at 1 µM: 120%
[28]; [37]
  remaining activity at 1 µM: 92%
[29]
  KinomeScan value: 81
[30]
  KinomeScan value: 99
[31]; [36]
  remaining activity at 1 µM: 49%
[31]; [37]
  remaining activity at 1 µM: 8%
[32]; [36]
  remaining activity at 1 µM: 103%
[32]; [37]
  remaining activity at 1 µM: 96%
[33]; [36]
  remaining activity at 1 µM: 124%
[33]; [37]
  remaining activity at 1 µM: 112%
[34]
  KinomeScan value: 92
